Assay results reported in patent US7915292B2, “Antibacterial quinoline derivatives” (Janssen Pharmaceutica NV, priority 2005, dated 2011).
≈ marks a conversion by molar mass, not a printed value. Where a name gives a salt, the structure may show the parent alone.

Experiments:
[1] = tested on: Mycobacterium tuberculosis (strain H37RV); assay: In-vitro method for testing compounds against M. tuberculosis (resazurin growth inhibition); assay type: cell-based; conditions: 7 days incubation; for IC50: Mycobacterium tuberculosis, 168 h, read-out: M. tuberculosis pIC50 (converted)
[2] = tested on: M. Smegmatis ATCC607; assay: In-vitro anti-bacterial activity against strain M. smegmatis ATCC607 (Alamar Blue growth inhibition); assay type: cell-based; conditions: 48 hours incubation; for IC50: Mycolicibacterium smegmatis, read-out: M. smegmatis pIC50 (converted)
Procedure: Serial five-fold dilutions (45 μl in 180 μl) were made directly in the microtiter plates from column 2 to 11 using a customised robot system (Zymark Corp., Hopkinton, Mass.). Pipette tips were changed after every 3 dilutions to minimize pipetting errors with high hydrophobic compounds. Untreated control samples with (column 1) and without (column 12) inoculum were included in each microtiter plate. Approximately 250 CFU per well of bacteria inoculum, in a volume of 100 μl in 2.8× Mueller-Hinton broth medium, was added to the rows […]. The same volume of broth medium without inoculum was added to column 12 in row A to H. The cultures were incubated at 37° C. for 48 hours in a humidified 5% CO2 atmosphere (incubator with open air valve and continuous ventilation). At the end of incubation, two days after inoculation, the bacterial growth was quantitated fluorometrically. Therefore Alamar Blue (10×) was added to all wells in a volume of 20 μl and plates were incubated for another 2 hours at […] The fluorescence was read in a computer-controlled fluorometer (Cytofluor, Biosearch) at an excitation wavelength of 530 nm and an emission wavelength of 590 nm (gain 30). The percentage growth inhibition achieved by the compounds was calculated according to standard methods and expressed as pIC50 values.

[3] = tested on: ECO 25922; assay: Microtitre plate assay, IC90 determination, ECO 25922; assay type: cell-based, E. coli; conditions: 90% inhibitory concentration for bacterial growth, strain ECO 25922, 24 hours at 37° C.; for IC90: Escherichia coli, read-out: IC90 (μg/ml) ECO 25922
Procedure: Stocks (0.5 ml/tube) were stored at -70° C. until use. Bacteria titrations were performed in microtiter plates to detect the TCID50, in which the TCID50 represents the dilution that gives rise to bacterial growth in 50% of inoculated cultures. In general, an inoculum level of approximately 100 TCID50 was used for susceptibility testing. […] Serial five-fold dilutions (45 μl in 180 μl) were made directly in the microtiter plates from column 2 to reach column 11. Untreated control samples with (column 1) and without (column 12) inoculum were included in each microtiter plate. Depending on the bacteria type, approximately 10 to 60 CFU per well of bacteria inoculum (100 TCID50), in a volume of 100 μl in 2.8× Mueller-Hinton broth medium, was added to the rows […]. The same volume of broth medium without inoculum was added to column 12 in row A to H. The cultures were incubated at 37° C. for 24 hours under a normal atmosphere (incubator with open air valve and continuous ventilation). At the end of incubation, one day after inoculation, the bacterial growth was quantitated fluorometrically. Therefore resazurin (0.6 mg/ml) was added in a volume of 20 μl to all wells 3 hours after inoculation, and the plates were re-incubated overnight. A change in colour from blue to pink indicated the growth of bacteria. The fluorescence was read in a computer-controlled fluorometer (Cytofluor Biosearch) at an excitation wavelength of 530 nm and an emission wavelength of 590 nm. The % growth inhibition achieved by the compounds was calculated according to standard methods. The IC90 (expressed in μg/ml) was defined as the 90% inhibitory concentration for bacterial growth.

Compound | M. tuberculosis pIC50 [1] | M. smegmatis pIC50 [2] | other results
COc1cccc(CN(CCN(C)C)C(c2ccccc2)c2cc3cc(Br)ccc3nc2OC)c1 (stereo not drawn) (as salt: oxalate) [Compound 20] |  |  | melting point: 142 °C
Cc1ccc2nc(-c3ccccc3)c(C(c3ccccc3)N(C)CCN(C)C)cc2c1 (stereo not drawn) (as salt: oxalate) [Compound 37] |  |  | melting point: 142 °C
Cc1ccc2nc(-c3ccccc3)c(C(c3ccccc3)N(CC(=O)N(C)C)Cc3ccccc3)cc2c1 (stereo not drawn) [Compound 45] |  |  | IC50 [1]: 10000 nM; IC50 [2]: 1000 nM
Cc1ccc2nc(-c3ccccc3)c(C(c3ccccc3)N(CC(=O)N(C)CC#N)Cc3ccccc3)cc2c1 (stereo not drawn) [Compound 46] | 5.0 | 5.8 | 
CCN(CC)C(=O)CN(Cc1ccccc1)C(c1ccccc1)c1cc2cc(C)ccc2nc1-c1ccccc1 (stereo not drawn) [Compound 47] |  |  | IC50 [1]: 6310 nM; IC50 [2]: 316 nM
CCN(Cc1ccccc1)C(=O)CN(Cc1ccccc1)C(c1ccccc1)c1cc2cc(C)ccc2nc1-c1ccccc1 (stereo not drawn) [Compound 48] | 4.1 |  | 
CCCN(CCC)C(=O)CN(Cc1ccccc1)C(c1ccccc1)c1cc2cc(C)ccc2nc1-c1ccccc1 (stereo not drawn) [Compound 49] | 4.6 | 5.2 | 
CNC(=O)CN(Cc1ccccc1)C(c1ccccc1)c1cc2cc(Br)ccc2nc1-c1ccccc1 (stereo not drawn) [Compound 52] |  | 5.8 | IC90 (μg/ml) ECO 25922 [3]: 13.8 µg/mL (≈ 25.1 µM)
O=C(CN(Cc1ccccc1)C(c1ccccc1)c1cc2ccccc2nc1-c1ccccc1)N1CCCC1 (stereo not drawn) [Compound 55] | 4.3 | 6.0 | IC90 (μg/ml) ECO 25922 [3]: 12.9 µg/mL (≈ 25.2 µM)
Cc1ccc2nc(-c3ccccc3)c(C(c3ccccc3)N(CC(=O)N3CCCC3)Cc3ccccc3)cc2c1 (stereo not drawn) [Compound 64] | 5.0 | 6.5 | 
Cc1ccc2nc(-c3ccccc3)c(C(c3ccccc3)N(CC(=O)N3CCSC3)Cc3ccccc3)cc2c1 (stereo not drawn) [Compound 65] | 5.0 | 6.5 | IC90 (μg/ml) ECO 25922 [3]: 13.7 µg/mL (≈ 25.2 µM)
Cc1ccc2nc(-c3ccccc3)c(C(c3ccccc3)N(CC(=O)N3CCC(C)CC3)Cc3ccccc3)cc2c1 (stereo not drawn) [Compound 67] | 5.7 | 6.0 | 
Cc1ccc2nc(-c3ccccc3)c(C(c3ccccc3)N(CC(=O)N3CCOCC3)Cc3ccccc3)cc2c1 (stereo not drawn) [Compound 68] | 5.1 | 6.5 | 
Cc1ccc2nc(-c3ccccc3)c(C(c3ccccc3)N(CC(=O)N3CC(C)OC(C)C3)Cc3ccccc3)cc2c1 (stereo not drawn) [Compound 71] | 5.1 | 5.7 | 
Cc1ccc2nc(-c3ccccc3)c(C(c3ccccc3)N(CC(=O)N3Cc4ccccc4C3)Cc3ccccc3)cc2c1 (stereo not drawn) [Compound 73] | 4.5 |  | 
Cc1ccc2nc(-c3ccccc3)c(C(c3ccccc3)N(CC(=O)N3CCc4ccccc4C3)Cc3ccccc3)cc2c1 (stereo not drawn) [Compound 74] | 5.0 | 5.2 | IC90 (μg/ml) ECO 25922 [3]: 14.8 µg/mL (≈ 25.2 µM)
Cc1ccc2nc(-c3ccccc3)c(C(c3ccccc3)N(CC(=O)N3CCN(c4ccccn4)CC3)Cc3ccccc3)cc2c1 (stereo not drawn) [Compound 75] | 5.4 |  | 
Cc1ccc2nc(-c3ccccc3)c(C(c3ccccc3)N(CC(=O)N3CCN(c4ncccn4)CC3)Cc3ccccc3)cc2c1 (stereo not drawn) [Compound 76] | 5.0 |  | 
Cc1ccc2nc(-c3ccccc3)c(C(c3ccccc3)N(CC(=O)N3CCN(Cc4ccccc4)CC3)Cc3ccccc3)cc2c1 (stereo not drawn) [Compound 78] | 6.05 |  | 
Cc1ccc2nc(-c3ccccc3)c(C(c3ccccc3)N(CC(=O)N3CCC(Cc4ccccc4)CC3)Cc3ccccc3)cc2c1 (stereo not drawn) [Compound 79] | 5.7 |  | 
COc1nc2ccc(Br)cc2cc1C(c1ccccc1)N(C)CC(=O)N1CCSCC1 (stereo not drawn) [Compound 88] | 4.05 | 4.9 | 
COc1nc2ccc(Br)cc2c(Cl)c1C(c1ccccc1)N(C)CC(=O)N1CCSCC1 (stereo not drawn) [Compound 97] | 4.2 | 4.4 | 
COc1nc2ccc(Br)cc2cc1C(c1ccccc1)N(CC(=O)N1CCOCC1)Cc1ccoc1 (stereo not drawn) [Compound 102] |  | 5.8 | IC90 (μg/ml) ECO 25922 [3]: 13.8 µg/mL (≈ 25.1 µM)

Compound | M. tuberculosis pIC50 [1] | M. smegmatis pIC50 [2] | other results
COc1nc2ccc(Br)cc2cc1C(c1ccccc1)N(CC(=O)N1CCCC1)Cc1ccccc1 (stereo not drawn) [Compound 103] |  | 4.5 | IC90 (μg/ml) ECO 25922 [3]: 13.7 µg/mL (≈ 25.2 µM)
COc1nc2ccc(Br)cc2cc1C(c1ccccc1)N(CC(=O)N1CCOCC1)Cc1ccccc1 (stereo not drawn) [Compound 105] |  | 6.0 | IC90 (μg/ml) ECO 25922 [3]: 14.1 µg/mL (≈ 25.2 µM)
COc1nc2ccc(Br)cc2cc1C(c1ccccc1)N(CC(=O)N1CCSCC1)Cc1ccccc1 (stereo not drawn) [Compound 106] | <4 | 6.4 | IC90 (μg/ml) ECO 25922 [3]: 14.5 µg/mL (≈ 25.1 µM)
COc1nc2ccc(Br)cc2cc1C(c1ccccc1)N(CC(=O)N1CCOCC1)Cc1ccccc1Cl (stereo not drawn) [Compound 108] |  | 5.9 | IC90 (μg/ml) ECO 25922 [3]: 14.9 µg/mL (≈ 25 µM)
COc1nc2ccc(Br)cc2cc1C(c1ccccc1)N(CC(=O)N1CCOCC1)Cc1cccnc1 (stereo not drawn) [Compound 111] |  | 5.8 | IC90 (μg/ml) ECO 25922 [3]: 14.1 µg/mL (≈ 25.1 µM)
COc1nc2ccc(Br)cc2cc1C(c1ccccc1)N(CC(=O)N1CCSCC1)Cc1cccc2ncccc12 (stereo not drawn) [Compound 115] |  | 4.8 | 
COc1nc2ccc(Br)cc2cc1C(c1ccccc1)N(CC(=O)N1CCOCC1)Cc1cccc2ncccc12 (stereo not drawn) [Compound 116] |  | 5.3 | 
COc1nc2ccc(Br)cc2cc1C(c1ccccc1)N(CC(=O)N1CCSCC1)Cc1ccnc2ccccc12 (stereo not drawn) [Compound 117] |  | 4.3 | 
COc1nc2ccc(Br)cc2cc1C(c1ccccc1)N(CC(=O)N1CCOCC1)Cc1ccnc2ccccc12 (stereo not drawn) [Compound 118] |  | 5.6 | 
COc1nc2ccc(Br)cc2cc1C(c1ccccc1)N(CC(=O)N1CCN(C)CC1)Cc1ccnc2ccccc12 (stereo not drawn) [Compound 119] |  | 5.5 | 
COc1nc2ccc(Br)cc2cc1C(c1ccccc1)N(CCC(=O)N1CCOCC1)Cc1ccccc1 (stereo not drawn) [Compound 120] |  | 5.6 | IC90 (μg/ml) ECO 25922 [3]: 14.4 µg/mL (≈ 25.1 µM)
COc1nc2ccc(C#N)cc2cc1C(c1ccccc1)N(CC(=O)N1CCOCC1)Cc1ccccc1 (stereo not drawn) [Compound 124] |  | 5.05 | IC90 (μg/ml) ECO 25922 [3]: 12.7 µg/mL (≈ 25.1 µM)
O=C(CN(Cc1ccccc1)C(c1ccccc1)c1cc2ccccc2nc1-c1ccccc1)N1CCCCC1 (stereo not drawn) [Compound 126] |  | 6.4 | 
O=C(CN(Cc1ccccc1)C(c1ccccc1)c1cc2ccccc2nc1-c1ccccc1)N1CCSCC1 (stereo not drawn) [Compound 127] |  | 6.5 | 
CCOC(=O)CN(Cc1ccccc1)C(c1cccnc1)c1cc2ccccc2nc1-c1ccccc1 (stereo not drawn) [Compound 129] |  |  | IC50 [2]: 1580 nM
CCOC(=O)CN(C)C(c1ccccc1)c1cc2cc(Br)ccc2nc1OC (stereo not drawn) [Compound 131] |  |  | IC50 [1]: 31600 nM; IC50 [2]: 1000 nM
CCOC(=O)CN(C(C)C)C(c1ccccc1)c1cc2cc(Br)ccc2nc1OC (stereo not drawn) [Compound 133] | 4.4 | 5.7 | 
CCOC(=O)CN(Cc1ccoc1)C(c1ccccc1)c1cc2cc(Br)ccc2nc1OC (stereo not drawn) [Compound 136] |  | 4.4 | 
CCOC(=O)CN(Cc1ccccn1)C(c1ccccc1)c1cc2cc(Br)ccc2nc1OC (stereo not drawn) [Compound 139] |  | 4.3 | 
CCOC(=O)CN(Cc1ccccc1)C(c1ccccc1)c1cc2cc(Br)ccc2nc1-c1ccccc1 (stereo not drawn) [Compound 146] |  |  | IC50 [1]: 50100 nM; IC50 [2]: 501 nM; IC90 [3]: 14.2 µg/mL (≈ 25.1 µM)
CCOC(=O)CN(Cc1ccccc1)C(c1ccccc1)c1cc2cc(C)ccc2nc1-c1ccccc1 (stereo not drawn) [Compound 150] |  |  | IC50 [1]: 39800 nM; IC50 [2]: 398 nM
CCOC(=O)CN(Cc1ccccc1)C(c1ccccc1)c1cc2cc(-c3cccnc3)ccc2nc1-c1ccccc1 (stereo not drawn) [Compound 152] |  |  | IC50 [2]: 2510 nM; IC90 [3]: 14.2 µg/mL (≈ 25.2 µM)
COc1nc2ccc(Br)cc2cc1C(c1ccccc1)[N+]([O-])(CC(=O)N1CCOCC1)Cc1ccccc1 (stereo not drawn) [Compound 154] |  |  | IC50 [2]: 3980 nM
